The subject of assay [1] is K105 cells. Briefly: Adhesion of K105 cells to chondroadherin in the presence of synthetic peptide (FIG. 3, 5A-5B, 13). The following applies: 1 hour at 37° C. It counts as cell-based, human. Here is the method: Human cells (K9) originating from a human chondrosarcoma were a kind gift from Drs. Sven Inerot and Anders Lindahl, The Salgrenska University Hospital Gothenburg, Sweden. The K9 cells were cultured in Dulbeccos Modified Eagle Medium: Nutrient Mixture F12 (DMEM/F12 1:1) with GLUTAMAX I, supplemented with 10% fetal calf serum, 25 μg/ml ascorbic acid, 50 IU of penicillin and 50 μg/ml streptomycin (Life Technologies, Inc.). A different human cells line (K105) originating from a human chondrosarcoma was a kind gift from Dr. Sven Inerot, The Salgrenska University Hospital, Gothenburg, Sweden. The K105 cells were cultured in a mix of 40% Dulbeccos Modified Eagle Medium, 40% Minimum Essential Media (MEM) alpha Medium, 10% Nutrient Mixture F1 supplemented with 100 nM hydrocortisone, 100 ng/ml insulin, 10% fetal calf serum, 25 μg/ml ascorbic acid, 50 IU of penicillin and 50 μg/ml streptomycin (Life Technologies, Inc.). To harvest cells, culture dishes were rinsed three times with Ca^2+/Mg^2+-free PBS and the cells were incubated with 0.5% trypsin and 1 mM EDTA for 5 min. Detached cells were suspended in PBS containing 1 mg/ml trypsin inhibitor (Sigma) and then washed in PBS. To remove membrane-bound collagens the cells were treated with collagenase 100 U/ml (CLSPA; Worthington Biochemical Corp., Lakewood, N.J.) in PBS, 30 min. 37° C. and then washed in PBS.
Tissue culture 48-wells dishes (Nunclon, Nunc, Denmark) were coated overnight with 5 μg/ml chondroadherin in 4M Guanidine-HCl, 50 mM sodium acetate, pH 5.8, or for native protein in PBS. Alternatively coating was with 5 μg/ml collagen type II in PBS followed by after-coating with 0.5% BSA in PBS for 3 hours. Collagen type II was isolated from bovine nasal cartilage by pepsin digestion (11). Bacterially expressed chondroadherin was isolated as described above. Recombinant chondroadherin expressed in EBNA cell was cloned and purified as described elsewhere (8).
To test cell binding, the chondrosarcoma cells or bovine chondrocytes were suspended in PBS containing 0.1% BSA, 25 U/ml collagenase and added to the wells (50,000/well), in the absence or presence of various peptide pools or the synthetic peptides (200, 100, 50, 25, 12.5 μg/ml). Non-adherent cells were removed after 1 hour and adhesion was determined by measuring lysosomal N-acetylglucosaminidase (12). Adhesion and spreading was visualized by light microscopy. In the time studies, k105 cells were allowed to adhere for 30 minutes, unbound cells were removed and medium without serum supplemented with or without peptides (250 μg/ml), β1 integrin antibody (clone P4C10, Gibco BRL), EDTA (5 mM) was added. Cell morphology was visualized by light microscopy after 1, 3 and 20 hours.
Study design: Tissue culture dishes (48-wells) were coated with 5 μg/ml chondroadherin expressed in E. coli and blocked for non-specific binding with BSA. […] were suspended in PBS containing 0.1% BSA, 25 U/ml collagenase and added to the wells (50,000/well) in the presence of synthetic peptide to be tested and allowed to adhere for 1 hour at 37° C. Nonadherent cells were removed by washing, and adhesion was determined by analyzing lysosomal hexosaminidase.
A 12-mer peptide (1947.01) plus an N-terminal cysteine (CQLRGLRRWLEAK) (SEQ ID NO. 3) representing the candidate sequence identified by mass spectrometry were synthesized and its ability to inhibit cell adhesion was determined. Tissue culture dishes were coated with 5 μg/ml chondroadherin expressed in E. coli and blocked for non-specific binding with BSA. The cells were suspended in PBS containing 0.1% BSA, 25 U/ml collagenase and added to the wells (50,000/well) in the presence of synthetic peptide (200, 100, 50, 25, 12.5 μg/ml) and allowed to adhere for 1 hour at 37° C. Nonadherent cells were removed by washing, and adhesion was determined by analyzing lysosomal hexosaminidase. […]

The test system of assay [2] is IL-1 stimulated cartilage. Briefly: NO release in IL-1 stimulated cartilage explants (Griess reaction). The following applies: 400 uM peptide, IL-1a 10 ng/ml. The class given is cell-based, bovine. Here is the method: The following experiments measure the effect of a peptide on NO release in IL-1 stimulated cartilage.
Study design: A skinned bovine nose (from cows 18-24 months old) was collected at Hörby slaughter house (Team Ugglarp, Sweden). The septum inside the nose was cut out and the mucosa and the perichondrium was removed before the cartilage was placed in PBS with PEST (100 IU penicillin, 100 μg/ml streptomycin) and 2.5 μg/ml Fungizone (all from Invitrogen, Sweden) for 2 hours at room temperature.
Two mm pieces were punched out of the cartilage. Each piece was placed in a 24-well cell culture plate (Falcon, Sweden) containing 1 ml cell culture medium, HAMs F12 (Invitrogen, Sweden) supplemented with 10 μg/ml BSA, […] (both from Sigma, Sweden), PEST (100 IU penicillin, […]) and 2.5 μg/ml Fungizone. After 24 hours, the medium was changed and the cartilage pieces were stimulated with human recombinant IL-1a, 10 ng/ml (Roche, Sweden). The peptides where tested in triplet at 20 and 400 μM. The cartilage tissue was incubated for another six days, mediums were exchanged every third day. On each occasion the media were collected for measurement of NO (Griess reaction).

Assay [3] concerns IL-1 stimulated synoviocytes. Briefly: IL-6 release in IL-1 stimulated synoviocytes (ELISA). The class given is cell-based, rat. The following applies: 50-400 μM peptide, IL-1a 50 ng/ml, 72 hour. Here is the method:
The following experiments measure the IL-6 release in IL-1 stimulated synoviocytes.
Study design: From rats with antigen induced arthritis, the hyperproliferative synovium, pannus, was taken from the inflamed knee day four after disease onset. The pannus tissue was cut to small pieces in PBS with PEST (100 IU penicillin, 100 μg/ml streptomycin) and Fungizone (2.5 μg/ml)(all from InVitrogen, Sweden), before incubation in collagenase (400 U/ml, Worthington, USA) for 3 hours at 37° C., 5% CO2. Cells were centrifugated (8 min., room temperature, 1100 rpm.) and suspended in RPMI 1640 supplemented with 10% FCS (InVitrogen, Sweden), PEST and Fungizone and seeded in a 25 cm^2 flask at 37° C., 5% CO2. The following day, cells were rinsed once with medium and further incubated. When confluent, cells were trypsinated for 1 min (0.25% Trypsin with EDTA, InVitrogen, Sweden) counted and seeded in 96 well plates, 10000 cells/well/200 μl.
After 24 hours, the medium was changed and the cells were stimulated with human recombinant IL-1a, 50 ng/ml (Roche, Sweden). The peptide to be investigated was tested in triplets in the concentration interval 50-400 μM. After 72 hour incubation at 37° C., 5% CO2, the medium was collected for measurement of NO (Griess reaction) and IL-6 was analyzed by an ELISA, according to the manufacturer's instructions (BD Biosciences, USA).

For assay [4], the system named is m-BSA antigen induced monoarthritis in rat. Briefly: In vivo antigen induced arthritis, knee-joint swelling. Particulars: intra-articular, twice daily. Here is the method:
The following model experiment measure the effect of the investigated compound on knee-joint swelling using antigen induced arthritis.
The effect of locally administered test compound, 400 mM given twice daily, on the development of arthritis in m-BSA antigen induced monoarthritis in rat was evaluated. Animals treated with saline or Methotrexate (in clinically relevant dose) were used as controls.
Study design: Female Dark Agouti rats, weighing approximately 150 g (B&K breeding center, Denmark) were used. The animals were sensitised intradermally at the tail root with 1 mg mBSA (Sigma A-1009) dissolved in […] and emulsified in […] complete adjuvant (Sigma F 5881). Ten days later the rats were shaved (left knee) and challenged with an intraarticular (i.a) injection of […]. Test compounds were administered intra-articular (left knee) in […] four hours before challenge and thereafter twice daily. The development of arthritis (knee diameters) was registered with an odimeter/calliper. The procedures were carried out under a brief Enflurane anaesthesia. The animals were sacrificed at day 4 after challenge/first treatment.

Regarding “H-[CQLRGLRRWLEAKASRPDATC]-OH (H-CQLRGLRRWLEAKASRPDATC-OH; also: cyclised (brackets), bond type not given here) [SEQ ID No. 9]”, in assay [1], the “inhibitory effect on K105 cell adhesion to chondroadherin (Example II, FIG. 13)” value is “inhibitory effect”. Further, the “NO-release from IL-1 stimulated cartilage explants” value in assay [2] is “decrease”. Also, the “IL-6-release from IL-1 stimulated synoviocytes” value in assay [3] is reported as “decrease”. For the same substance, the “disease-ameliorating effect compared with methotrexate” value in assay [4] is given as “in the same magnitude as methotrexate treatment”. For the same substance, in assay [4] (4 days), the “knee-joint swelling compared with saline treated animals” value is reported as “decreased”.

Source of the values: patent US8158577B2, “Modulation of cartilage homeostasis by active domains of cell binding extracellular matrix molecules” (priority 2004, dated 2012).
